According to article PMC11270730, “Isolation and In Vitro Biological Evaluation of Triterpenes from Salacia grandifolia Leaves” (ACS Omega, 2024):

Legend:
[1] = L929 cell viability, MTT assay (CC50); settings: mouse
Method: (§1) The antiviral activity of isolated compounds and extracts was evaluated against the murine coronavirus MHV-3. Initially, the viability of L929 (mouse adipose fibroblasts; ATCC CCL-1) cells was assessed using the MTT (3-(4,5-dimethylthiazol-2-yl)-2,5-diphenyltetrazolium bromide (Thermo Fisher Scientific, USA) assay.[11] Cells were cultured at 37 °C and 5% CO2 in Dulbecco’s modified Eagle medium (DMEM; Cultilab, Brazil) supplemented with 5% fetal bovine serum (FBS; Cultilab, Brazil), 100 IU/mL of penicillin (Cellofarm, Brazil), 100 μg/mL of streptomycin (Merck, Germany) and 0.25 μg/mL of amphotericin B (Cultilab, Brazil). Cells were seeded in 96-well microplates (4 × 10^4 cells per well) and added 200 μL of DMEM with 1% de FBS containing the diluted compounds and extracts to be tested (100 to 1.56 μM or 200 to 3.125 μg/mL). Serial dilutions of DMSO were used as a vehicle control. Additionally, a 10% v/v inhibition control of DMSO was used. After 72 h of incubation under the same conditions, media was removed and 100 μL of MTT diluted in DMEM (0.5 mg/mL) were added to each well and incubated for 3 h. Last, media was removed, and 100 μL of DMSO were added to each well to solubilize the formazan crystals. The absorbance was read at 570 nm using a spectrophotometer (Versamax, Molecular Devices, EUA). The percentages of cell viability inhibition were calculated as the ratio between the absorbance of cells treated with the compounds relative to the vehicle control. Linear regression was used to calculate CC50 values, considering only those data for which r^2 > 0.9. The 50% cytotoxic concentration (CC50) is defined as the highest concentration of a specific compound that reduces cell viability by 50%. All conditions were tested in two independent assays in triplicate.

MHV-3 = assay: Antiviral MTT assay against MHV-3 in L929 cells (EC50); assay type: cell-based, mouse hepatitis virus 3 (murine coronavirus); settings: for EC50: Murine coronavirus, MHV-3 in L929 cells, MOI 0.1, MTT, NA: not active
Method: as §1
Here, the same conditions as that used for CC50 were used, with the only difference being the concentrations of the samples (up to 8-fold dilution from the CC50 values for the compounds) diluted in 100 μL and added to 100 μL of viral suspension at a multiplicity of infection (MOI) of 0.1, that is, one viral particle per 10 cells in culture. Ribavirin was used as the positive control. The EC50 value was calculated as the percentage ratio between the absorbance of infected cells treated with the compounds and cells treated only with the vehicle. Last, the selectivity index (SI) was calculated using the ratio between CC50 and EC50. All conditions were tested in two independent assays in triplicate.

THP-1 cells = assay: Cytotoxic MTT assay, THP-1; assay type: cell-based; settings: Homo sapiens; THP-1, MTT, 48 h, mean ± SD of two independent experiments
Method: (§2) The cytotoxicity of compounds was evaluated against the K-562 (chronic myeloid leukemia, ATCC CCL-243) and THP-1 (acute monocytic leukemia, ATCC TIB-202) cell lines. […] For the cytotoxicity assessment, cells were planted in 96-well microplates (1 × 10^4 cells per well) containing RPMI 1640 medium (Roswell Park Memorial Institute, Cultilab, Campinas, SP, Brazil) supplemented with 10% FBS (Cultilab, Campinas, SP, Brazil), 100 U/mL penicillin, 100 μg/mL streptomycin, and 10 mM HEPES, pH 7.4. The cells were incubated in a humidified incubator at 37 °C with 5% CO2 until the assay was performed. […] After 48 h of incubation, 100 μL of MTT salt at a concentration of 0.5 mg/mL was added to each well. The plate was then incubated for 3 h. After the incubation period, the supernatant was removed, and 50 μL of DMSO was added to each well to solubilize the formazan crystals. The absorbance per well was measured at a wavelength of 550 nm using a microplate reader (Versamax, Molecular Devices, USA). The minimum concentration that inhibited 50% of cell viability (IC50) in the presence of the tested compounds was determined by comparing it with cells cultured without the compounds (considered 100% viable).

K-562 cells = assay: Cytotoxic MTT assay, K-562; assay type: cell-based; settings: Homo sapiens, K562; K-562, MTT, 48 h, mean ± SD of two independent experiments
Method: as §2

## CC1C(=O)CCC2C1(C)CCC1C2(C)CCC2(C)C3CC(C)(C)CCC3(CO)CC(=O)C12C (centres unmarked) [Compound 1, 28-hydroxyfriedelane-3,15-dione]
[1]
  CC50 at 72 h: > 100 µM
MHV-3
  EC50: 69 ± 6 µM
THP-1 cells
  IC50: 539 ± 43 µM
K-562 cells
  IC50: 259 ± 33 µM

## C[C@H]1C(=O)CC[C@@H]2[C@]1(C)CC[C@H]1[C@@]2(C)CC[C@@]2(C)[C@@H]3CC(C)(C)CC[C@]3(C)CC[C@]12C [Compound 2, friedelan-3-one]
[1]
  CC50 at 72 h: > 100 µM

## C[C@H]1[C@@H](O)CC[C@@H]2[C@]1(C)CC[C@H]1[C@@]2(C)CC[C@@]2(C)[C@@H]3CC(C)(C)CC[C@]3(C)CC[C@]12C [Compound 3, friedelan-3β-ol]
[1]
  CC50 at 72 h: > 100 µM

## C[C@H]1C(=O)CC[C@@H]2[C@]1(C)CC[C@H]1[C@@]2(C)CC[C@@]2(C)[C@@H]3CC(C)(C)CC[C@]3(C)CC(=O)[C@]12C [Compound 4, friedelane-3,15-dione]
[1]
  CC50 at 72 h: > 100 µM
MHV-3; MHV-3, up to 100 μM
  antiviral activity: no antiviral activity
THP-1 cells
  IC50: 350 ± 43 µM
K-562 cells
  IC50: 593 ± 44 µM

## C[C@H]1C(=O)CC[C@@H]2[C@]1(C)CC[C@H]1[C@@]2(C)CC[C@@]2(C)[C@@H]3CC(C)(C)CC[C@]3(C)C[C@H](O)[C@]12C [Compound 5, 15α-hydroxyfriedelan-3-one]
[1]
  CC50 at 72 h: > 100 µM

## C[C@H]1C(=O)CC[C@@H]2[C@]1(C)CC[C@H]1[C@@]2(C)CC[C@@]2(C)[C@@H]3CC(C)(C)CC[C@]3(CO)CC[C@]12C [Compound 6, 28-hydroxyfriedelan-3-one]
[1]
  CC50 at 72 h: > 100 µM
MHV-3; MHV-3 antiviral activity, 6 versus 1
  increase in activity compared to triterpene 1: 23 times
MHV-3
  EC50: 2.9 ± 0.3 µM
THP-1 cells
  IC50: 623 ± 12 µM
K-562 cells
  IC50: 318 ± 41 µM

## C[C@H]1C(=O)CC[C@@H]2[C@]1(C)CC[C@H]1[C@@]2(C)CC[C@@]2(C)[C@@H]3C[C@@](C)(CO)CC[C@]3(C)CC[C@]12C [Compound 7, 30-hydroxyfriedelan-3-one]
[1]
  CC50 at 72 h: > 100 µM
THP-1 cells
  IC50: 385 ± 21 µM
K-562 cells
  IC50: 361 ± 52 µM

## C[C@H]1C(=O)CC[C@@H]2[C@]1(C)CC[C@H]1[C@@]2(C)CC[C@@]2(C)[C@@H]3C[C@](C)(CO)CC[C@]3(C)CC[C@]12C [Compound 8, 29-hydroxyfriedelan-3-one]
[1]
  CC50 at 72 h: > 100 µM

## Nc1ccn([C@@H]2O[C@H](CO)[C@@H](O)[C@@H]2O)c(=O)n1 [cytarabine, reference compound]
THP-1 cells
  IC50: 41 ± 8 µM

## NC(=O)c1ncn([C@@H]2O[C@H](CO)[C@@H](O)[C@H]2O)n1 [ribavirin, reference compound]
[1]
  CC50 at 72 h: > 100 µM
MHV-3
  EC50: < 10 µM
